Data published in ChEMBL document CHEMBL5550215, “Discovery of Novel Imidazo[1,2-a]pyridine-Based HDAC6 Inhibitors as an Anticarcinogen with a Cardioprotective Effect” (J Med Chem, 2024).
Active and inactive are the calls of the source. No cut-off for these calls is given here.

Assays:
H9c2 [1] = experiment: Cardioprotective activity in H2O2 induced myocardial injury in rat H9c2 cells assessed as effect on P62 level at upto 8 uM by q-PCR analysis; type: functional, cell-based
[2] = Tmax in male Sprague-Dawley rat at 7 mg/kg,iv measured upto 8 hrs by UPLC-MS/MS analysis; type: ADME, organism-based; settings: in vivo
Mus musculus [3] = experiment: Cardioprotective activity against myocardial ischemia/reperfusion induced C57BL/6J mouse model assessed as reduction in IL-18 expression at 2.5 to 10 mg/kg; type: functional, organism-based; settings: dose 2.5-10 mg/kg
MGC-803 [4] = experiment: Antitumor activity against human MGC-803 cells xenografted in […] mouse model assessed as suppression of tumor volume at 25 to 50 mg/kg, ip measured upto 21 days with continuous administration for 5 days followed by two days break; type: functional, organism-based; settings: dose 25-50 mg/kg, time <= 21.0 day
HGC-27 = experiment: Antiproliferative activity against human HGC-27 cells assessed as inhibition of cell growth by MTT assay
H9c2 [5] = experiment: Cardioprotective activity in H2O2 induced myocardial injury in rat H9c2 cells assessed as downregulation of IL-1 beta mRNA level at upto 8 uM by q-PCR analysis; type: functional, cell-based
[6] = Toxicity in C57BL/6 mouse assessed as cell necrosis at 25 to 50 mg/kg, ip by H and E staining based analysis; type: organism-based; settings: in vivo, dose 25-50 mg/kg
TE-1 = experiment: Antiproliferative activity against human TE-1 cells assessed as inhibition of cell growth by MTT assay
PC-3 = experiment: Antiproliferative activity against human PC-3 cells assessed as inhibition of cell growth by MTT assay
H9c2 [7] = experiment: Cardioprotective activity against H2O2 induced myocardial damage in rat H9c2 cells harbouring Ad.HDAC6 assessed as increase in cell viability at 8 uM by MTT assay; type: functional, cell-based
H9c2 [8] = experiment: Cardioprotective activity against H2O2 induced myocardial damage in rat H9c2 cells harbouring Ad.GFP assessed as increase in cell viability at 8 uM by MTT assay; type: functional, cell-based
Mus musculus [9] = experiment: Cardioprotective activity against myocardial ischemia/reperfusion induced C57BL/6J mouse model assessed as reduction in ST-segment elevation at 2.5 to 10 mg/kg; type: functional, organism-based; settings: dose 2.5-10 mg/kg
[10] = AUC (0 to infinity) in male Sprague-Dawley rat at 7 mg/kg,po measured upto 8 hrs by UPLC-MS/MS analysis; type: ADME, organism-based; settings: in vivo
MGC-803 [11] = experiment: Induction of apoptosis in human MGC-803 cells assessed as viable cells at 2 uM measured after 48 hrs by Annexin V-EGFP and PI staining based flow cytometry analysis (reference value: 92.3%); type: functional; settings: read-out: Activity
H9c2 [12] = experiment: Protection against H2O2 induced myocardial cell injury in rat H9c2 cells at 10 uM pretreated for 24 hrs followed by H2O2 exposure and measured after 1.5 hrs (reference value: 17.91 to 57.32%); type: functional; settings: time 25.5 hrs
MGC-803 [13] = experiment: Induction of apoptosis in human MGC-803 cells assessed as late apoptotic cells at 2 uM measured after 48 hrs by Annexin V-EGFP and PI staining based flow cytometry analysis (reference value: 3.16%); type: functional
MGC-803 [14] = experiment: Induction of apoptosis in human MGC-803 cells assessed as increase in bax expression by Western blot analysis; type: functional, cell-based; settings: dose <= 2.0 µM
BGC-823 = experiment: Antiproliferative activity against human BGC-823 cells assessed as inhibition of cell growth by MTT assay
H9c2 [15] = experiment: Cardioprotective activity against H2O2 induced myocardial damage in rat H9c2 cells harbouring Ad.HDAC6 assessed as reversal of IL-1 beta expression at 8 uM; type: functional, cell-based
[16] = Cmax in male Sprague-Dawley rat at 7 mg/kg,iv measured upto 8 hrs by UPLC-MS/MS analysis; type: ADME, organism-based; settings: in vivo
MGC-803 [17] = experiment: Induction of apoptosis in human MGC-803 cells assessed as decrease in Bcl-2 expression by Western blot analysis; type: functional, cell-based; settings: dose <= 2.0 µM
H9c2 [18] = experiment: Cardioprotective activity in H2O2 induced myocardial injury in rat H9c2 cells assessed as effect on HO-1 level at upto 8 uM by q-PCR analysis; type: functional, cell-based
H9c2 [19] = experiment: Cardioprotective activity in H2O2 induced myocardial injury in rat H9c2 cells assessed as effect on beclin1 level at upto 8 uM by q-PCR analysis; type: functional, cell-based
PANC-1 = experiment: Antiproliferative activity against human PANC-1 cells assessed as inhibition of cell growth by MTT assay
Mus musculus [20] = experiment: Cardioprotective activity against myocardial ischemia/reperfusion induced C57BL/6J mouse model assessed as alleviation of leukocyte infiltration at 10 mg/kg by H and E staining based analysis; type: functional, organism-based
[21] = Toxicity in C57BL/6 mouse assessed as lesions in myocardial tissue at 25 to 50 mg/kg, ip by H and E staining based analysis; type: organism-based; settings: in vivo, dose 25-50 mg/kg
MKN-45 = experiment: Antiproliferative activity against human MKN-45 cells assessed as inhibition of cell growth by MTT assay
MGC-803 [22] = experiment: Antiproliferative activity against human MGC-803 cells assessed as inhibition of cell growth by MTT assay
H9c2 [23] = experiment: Cardioprotective activity in H2O2 induced myocardial injury in rat H9c2 cells assessed as LDH release by absorbance based analysis; type: functional, cell-based; settings: dose <= 8.0 µM
H9c2 [24] = experiment: Cardioprotective activity in H2O2 induced myocardial injury in rat H9c2 cells assessed as downregulation of IL-1 beta expression; type: functional, cell-based; settings: dose <= 8.0 µM
Mus musculus [25] = experiment: Cardioprotective activity against myocardial ischemia/reperfusion induced C57BL/6J mouse model assessed as alleviation of extensive myocardial necrosis at 10 mg/kg by H and E staining based analysis; type: functional, organism-based
H9c2 [26] = experiment: Cardioprotective activity against H2O2 induced myocardial damage in rat H9c2 cells harbouring Ad.GFP assessed as decrease in LDH leakage rate at 8 uM by absorbance based analysis; type: functional, cell-based
H9c2 [27] = experiment: Cardioprotective activity against H2O2 induced myocardial damage in rat H9c2 cells harbouring Ad.HDAC6 assessed as reversal of IL-18 expression at 8 uM; type: functional, cell-based
H9c2 [28] = experiment: Cardioprotective activity in H2O2 induced myocardial injury in rat H9c2 cells assessed as decrease in cell death at 2 to 8 uM; type: functional, cell-based; settings: dose 2-8 µM
[29] = Tmax in male Sprague-Dawley rat at 7 mg/kg,po measured upto 8 hrs by UPLC-MS/MS analysis; type: ADME, organism-based; settings: in vivo
H9c2 [30] = experiment: Cardioprotective activity in H2O2 induced myocardial injury in rat H9c2 cells assessed as cell viability by MTT assay; type: functional, cell-based; settings: dose <= 8.0 µM

Which results are given for `O=C(NO)c1ccc(CNC(=O)c2cc(-c3ccc(F)cc3)cn3ccnc23)cc1`?
Activity (H9c2 [1]): inactive; Tmax [2]: 5 min; Activity (Mus musculus [3]): Active; Activity (MGC-803 [4]): Active; IC50 (HGC-27): 2.8 µM; Activity (H9c2 [5]): Active; Activity [6]: Non-Toxic; IC50 (TE-1): 4.5 µM; IC50 (PC-3): > 10 µM; Activity (H9c2 [7]): Active; Activity (H9c2 [8]): Active; Activity (Mus musculus [9]): Active; AUC(0-inf) [10]: 105 ng·h/mL; viability at 2 µM (MGC-803 [11]): 70.1%; Activity (H9c2 [12]): 66.13%; Activity (MGC-803 [13]): 24.2%; Activity (MGC-803 [14]): Dose-Dependent Effect; IC50 (BGC-823): 2.25 µM; Activity (H9c2 [15]): Active; Cmax [16]: 807 ng/mL; Activity (MGC-803 [17]): Dose-Dependent Effect; Activity (H9c2 [18]): inactive; Activity (H9c2 [19]): inactive; IC50 (PANC-1): 3.79 µM; Activity (Mus musculus [20]): Active; Activity [21]: Non-Toxic; IC50 (MKN-45): 7.43 µM; IC50 (MGC-803 [22]): 0.95 µM; Activity (H9c2 [23]): Active; Activity (H9c2 [24]): Dose-Dependent Effect; Activity (Mus musculus [25]): Active; Activity (H9c2 [26]): Active; Activity (H9c2 [27]): Active; Activity (H9c2 [28]): Active; Tmax [29]: 60 min; Activity (H9c2 [30]): Active
